Assay results taken from US4497816A, “7-(4-Pyridyl)-1,8-naphthyridine derivatives and their antibacterial compositions” (Dainippon Pharmaceutical Co., Ltd., priority 1982, dated 1985).
≈ marks a conversion by molar mass, not a printed value.

What was measured:
Escherichia coli P-5101 [1] = assay: In vitro antibacterial activity (MIC), agar dilution method; format: cell-based; conditions: P5101
Description: (§1) *^3 In vitro antibacterial activity
(§2) The minimum inhibitory concentrations (MIC:
(§3) μg/ml) shown in Table 1 were determined according
(§4) to the agar dilution method recommended by Japan
(§5) Society of Chemotherpy (1980)

[2] = test system: Pseudomonas aeruginosa No. 12; assay: as above; format: cell-based
Description: as §1, §2, §3, §4, §5

[3] = test system: Staphylococcus aureus No. 50774; assay: as above; format: cell-based
Description: as §1, §2, §3, §4, §5

[4] = test system: Staphylococcus aureus No. 50774; assay: In vivo efficacy against the systemic infections in mice (Staphylococcus aureus); set-up: species or system mice (male ddY); conditions: 336 h; Staphylococcus aureus No. 50774, intravenous infection; oral, twice, about 5 minutes and 6 hours after infection; observed 14 days
Description: (§6) Compounds 1, A and NA were each suspended in a 0.2%
(§7) aqueous solution of sodium carboxymethylcellulose.
(§8) Each of the solutions was orally administered to
(§9) mice infected with each of the test organisms under
(§10) the conditions described below, and the median
(§11) effective dose (ED50) was calculated in accordance
(§12) with the Behrens-Kaerber method [Arch. Exp. Path.
(§13) Experimental conditions:
(§14) Mice: Male mice (ddY) weighing about 20 g
Staphylococcus aureus No. 50774
Intravenous infection with about 5 × 10^8
cells per mouse suspended in saline
Twice, about 5 minutes and 6 hours after
Staphylococcus aureus No. 50774-for 14 days

Escherichia coli P-5101 [5] = assay: In vivo efficacy against the systemic infections in mice (Escherichia coli); set-up: species or system mice (male ddY); conditions: P5101; Escherichia coli P-5101, intraperitoneal infection; oral, twice, about 5 minutes and 6 hours after infection
Description: as §6, §7, §8, §9, §10, §11, §12, §13, §14
Escherichia coli P-5101
Intraperitoneal infection with about 9 × 10^6
(§15) cells per mouse suspended in trypto-soy
(§16) Twice, about 5 minutes and 6 hours after […]

[6] = test system: Pseudomonas aeruginosa No. 12; assay: In vivo efficacy against the systemic infections in mice (Pseudomonas aeruginosa); set-up: species or system mice (male ddY); conditions: Pseudomonas aeruginosa No. 12, intraperitoneal infection; oral, twice, about 5 minutes and 6 hours after infection
Description: as §6, §7, §8, §9, §10, §11, §12, §13, §14
Pseudomonas aeruginosa No. 12
Intraperitoneal infection with about 5 × 10^3
as §15, §16

[7] = Acute oral toxicity in mice; conditions: mouse, in vivo, female mice (ddY), deaths counted after 7 days
Description: *^5 Acute oral toxicity in mice
A suspension containing compound 1 in various
concentrations was orally given to female mice
(ddY) at a volume of 0.1 ml per 10 g of body weight.
The number of dead mice was counted after 7 days,
and the value of median lethal dose (LD50) was
calculated in accordance with the Behrens-Kaerber

Structure (SMILES)	MIC (Escherichia coli P-5101 [1]) [µg/mL]	MIC [2] [µg/mL]	MIC [3] [µg/mL]	ED50 [4] [mg/kg]	ED50 (Escherichia coli P-5101 [5]) [mg/kg]	ED50 [6] [mg/kg]	LD50 at 168 h [7] [mg/kg]
CCn1cc(C(=O)O)c(=O)c2cc(F)c(-c3ccncc3)nc21 [Compound 1, 1-Ethyl-6-fluoro-1,4-dihydro-4-oxo-7-(4-pyridyl)-1,8-naphthyridine-3-carboxylic acid]	0.2 (≈ 0.638 µM)	3.13 (≈ 9.99 µM)	0.2 (≈ 0.638 µM)	2.84	3.1	12.2	> 2000
CCn1cc(C(=O)O)c(=O)c2ccc(-c3ccncc3)nc21 [Compound A, 1-ethyl-1,4-dihydro-4-oxo-7-(4-pyridyl)-1,8-naphthyridine-3-carboxylic acid]	0.78 (≈ 2.64 µM)	12.5 (≈ 42.3 µM)	1.56 (≈ 5.28 µM)	23.7	21	> 100	
CCn1cc(C(=O)O)c(=O)c2ccc(C)nc21 [NA, 1-ethyl-1,4-dihydro-7-methyl-4-oxo-1,8-naphthyridine-3-carboxylic acid]	3.13 (≈ 13.5 µM)	200 (≈ 861 µM)	50 (≈ 215 µM)	767		267	
